According to patent publication US20060252807A1, “Novel ortho-terphenyl inhibitors of p38 kinase and methods of treating inflammatory disorders” (Kalypsys, Inc., priority 2005, published 2006):

Experiments:
[1] = biological target: T1, active p38 alpha enzyme (Upstate Biotechnology) (Homo sapiens, UniProt Q16539); assay: p38α biochemical assay (ATP turnover, luminescent detection, Cambrex PKlight); settings: Table 1 Biological Activity
T1 construct: purchased Upstate Biotechnology
Outline: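 Luminescent ATP-depletion readout measures total ATP turnover by p38α phosphorylating whole MapkapK2 protein. ATP 1.4 uM final; 30C, 2 h. Compounds delivered from DMSO.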

TNF-α production = TNF-α production by LPS-stimulated rats (ELISA); format: in vivo, Male Lewis rats; settings: rat, −1 hr before LPS, read-out: LPS Induced TNF alpha (−1 hr) In Vivo (+) = >15% Inhibition (−) = ≦15% Inhibition
Experimental: TNF-α Production by LPS-Stimulated Mice
Male Lewis rats (180-200 g) were injected intraperitoneally with lipopolysaccharide (LPS) (50 μg/kg of E. coli strain 0111:B4, Sigma) suspended in sterile saline. Ninety minutes later, mice were sedated by CO2:O2 inhalation and a blood sample was obtained. Serum was separated and analyzed for TNF-α concentrations by commercial ELISA assay per the manufacturer's instructions (R&D Bioscience). Test compounds were administered orally at various times before LPS injection. The compounds were dosed either as suspensions or as solutions in various vehicles or solubilizing agents.
Compounds were dosed 0.5 to 3 hours before LPS stimulation. Rats were anaesthetized with Isofluor and injected i.v. with 0.3 mg/kg of LPS* in a volume of 0.3 ml sterile saline. Ninety minutes after the LPS injection, blood samples were collected into heparin tubes for preparation of plasma samples. Repression of TNFα production is assessed by commercial ELISA and reported below in Table 2.

T1 sequence (Q16539 whole entry): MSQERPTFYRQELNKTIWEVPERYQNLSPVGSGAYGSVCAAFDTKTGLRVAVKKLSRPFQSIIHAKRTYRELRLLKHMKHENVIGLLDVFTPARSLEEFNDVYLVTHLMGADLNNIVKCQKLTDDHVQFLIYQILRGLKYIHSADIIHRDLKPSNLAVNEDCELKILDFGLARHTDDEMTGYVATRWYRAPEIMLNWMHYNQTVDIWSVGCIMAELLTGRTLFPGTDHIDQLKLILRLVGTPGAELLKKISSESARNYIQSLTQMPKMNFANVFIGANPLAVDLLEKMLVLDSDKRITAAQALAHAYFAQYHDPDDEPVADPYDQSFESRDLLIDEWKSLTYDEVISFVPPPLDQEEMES

Compound	IC50 ([1]; p38α biochemical assay)	IC50 ([1]; p38α kinase)	inhibition at 10 mg/kg (TNF-α production)	inhibition at 30 mg/kg (TNF-α production; dose 30 mg/kg)
CC(C)NC(=O)c1csc(-c2oc(CN3CCOCC3)nc2-c2ccc(F)cc2)n1 [Example 41, 2-|4-(4-Fluoro-phenyl)-2-morpholin-4-ylmethyl-oxazol-5-yl|-thiazole-4-carboxylic acid isopropylamide]	≤ 1000 nM	–	> 15%	–
CC(C)NC(=O)c1csc(-c2oc(CN3CCNCC3)nc2-c2ccc(F)cc2)n1 [Example 44, 2-|4-(4-Fluoro-phenyl)-2-piperazin-1-ylmethyl-oxazol-5-yl|-thiazole-4-carboxylic acid isopropylamide]	≤ 1000 nM	–	≤ 15%	–
Cc1nc(-c2ccc(F)cc2)c(-c2nc(C(=O)NC(C)C)cs2)s1 [Example 46, 4′-(4-Fluoro-phenyl)-2′-methyl-|2,5′|bithiazolyl-4-carboxylic acid isopropylamide]	≤ 1000 nM	–	–	> 15%
O=C(NCc1cccnc1)c1csc(-c2c(-c3ccc(F)cc3)n[nH]c2C2CCN(C(=O)CO)CC2)n1 [Example 68, 2-{3-(4-Fluoro-phenyl)-5-|1-(2-hydroxy-acetyl)-piperidin-4-yl|-1H-pyrazol-4-yl}thiazole-4-carboxylic acid (pyridin-3-ylmethyl)-amide]	≤ 1000 nM	–	> 15%	–
CC(C)NC(=O)c1csc(-c2c(-c3ccc(F)cc3)ncn2C2CCNCC2)n1 [Example 91, 2-|5-(4-Fluoro-phenyl)-3-piperidin-4-yl-3H-imidazol-4-yl|-thiazole-4-carboxylic acid isopropylamide]	≤ 1000 nM	–	> 15%	–
CC(C)NC(=O)c1csc(-c2c(-c3ccc(F)cc3)ncn2C2CCN(C(=O)CO)CC2)n1 [Example 93, 2-{5-(4-Fluoro-phenyl)-3-|1-(2-hydroxy-acetyl)-piperidin-4-yl|-3H-imidazol-4-yl}-thiazole-4-carboxylic acid isopropylamide]	≤ 1000 nM	–	> 15%	–
O=C(NCc1cccnc1)c1csc(-c2c(-c3ccc(F)cc3)n[nH]c2C2CCNCC2)n1 [Example 2028]	–	≤ 1000 nM	≤ 15%	–

The next lines start with results.

IC50 ([1]; p38α biochemical assay)	IC50 ([1]; p38α kinase)	Compound	inhibition at 10 mg/kg (TNF-α production)	inhibition at 30 mg/kg (TNF-α production; dose 30 mg/kg)
≤ 1000 nM	–	CC(C)NC(=O)c1csc(-c2c(-c3ccc(F)cc3)n[nH]c2C2CCN(C(=O)CO)CC2)n1 [Example 62, 2-{3-(4-Fluoro-phenyl)-5-|1-(2-hydroxy-acetyl)-piperidin-4-yl|-1H-pyrazol-4-yl}thiazole-4-carboxylic acid isopropylamide]	> 15%	–
≤ 1000 nM	–	CCNC(=O)c1csc(-c2c(-c3ccc(F)cc3)n[nH]c2C2CCN(C(=O)CO)CC2)n1 [Example 64, 2-{3-(4-Fluoro-phenyl)-5-|1-(2-hydroxy-acetyl)-piperidin-4-yl|-1H-pyrazol-4-yl}-thiazole-4-carboxylic acid ethylamide]	≤ 15%	–
≤ 1000 nM	–	C#CCNC(=O)c1csc(-c2c(-c3ccc(F)cc3)n[nH]c2C2CCN(C(=O)CO)CC2)n1 [Example 66, 2-{3-(4-Fluoro-phenyl)-5-|1-(2-hydroxy-acetyl)-piperidin-4-yl|-1H-pyrazol-4-yl}-thiazole-4-carboxylic acid prop-2-ynylamide]	≤ 15%	–
≤ 1000 nM	–	CONC(=O)c1csc(-c2c(-c3ccc(F)cc3)n[nH]c2C2CCNCC2)n1 [Example 71, 2-|3-(4-Fluoro-phenyl)-5-piperidin-4-yl-1H-pyrazol-4-yl|-thiazole-4-carboxylic acid methoxy-amide]	≤ 15%	–
≤ 1000 nM	–	Cc1[nH]nc(-c2ccc(F)cc2)c1-c1nc(C(=O)NCC2CC2)cs1 [Example 73, 2-|3-(4-Fluoro-phenyl)-5-methyl-1H-pyrazol-4-yl|-thiazole-4-carboxylic acid cyclopropylmethyl-amide]	≤ 15%	–
≤ 1000 nM	–	C#CCNC(=O)c1csc(-c2c(-c3ccc(F)cc3)n[nH]c2C)n1 [Example 78, 2-|3-(4-Fluoro-phenyl)-5-methyl-1H-pyrazol-4-yl|-thiazole-4-carboxylic acid prop-2-ynylamide]	≤ 15%	–
–	≤ 1000 nM	CC(C)NC(=O)c1csc(-c2c(-c3ccc(F)cc3)n[nH]c2C2CCNCC2)n1 [Example 811]	> 15%	–
–	≤ 1000 nM	CCNC(=O)c1csc(-c2c(-c3ccc(F)cc3)n[nH]c2C2CCNCC2)n1 [Example 2026]	> 15%	–
–	≤ 1000 nM	C#CCNC(=O)c1csc(-c2c(-c3ccc(F)cc3)n[nH]c2C2CCNCC2)n1 [Example 2027]	> 15%	–
